Assay results: patent publication US6338963B1, “Use of carbon monoxide dependent guanylyl cyclase modifiers to stimulate neuritogenesis” (NeoTherapeutics, Inc., priority 1994, dated 2002)

How the values were obtained:
[1] = system: basal forebrain cholinergic neurons; settings: mouse NGF 25 μg/ml, Barnett et al.; cited from earlier work
BDNF mRNA = experiment: Northern blot of neurotrophin mRNA from astrocytes: BDNF; assay type: cell-based, NIH Swiss mice; design: key: The conditions which produced a detectable amount of each of the neurotrophin mRNAs are indicated by a “+”; a “++” indicating that at least twice the detectable amount was present; Those blots which were negative are indicated by a “−”; settings: NGF 40 ng/ml, 24 hours
Experimental: (§1) Induction of neurotrophin mRNA was determined by northern blot analysis of astrocytes cultured with AIT-082, NGF, or both. The cells were harvested and RNA extracted at 24 hours after treatment.
(§2) More particularly, astrocytes from the cerebral cortex of NIH Swiss mice (Harlan) were isolated. Briefly, newborn pups (0-24 hours) were decapitated. Their brains were removed under aseptic conditions and were placed in modified Dulbecco's medium (DMEM) containing 20% heat-inactivated horse serum (Hyclone) (“complete medium”). The neopallium was then dissected from each cerebral hemisphere and minced into 1 mm cubes.
(§3) The astrocytes were then isolated by mechanical dissociation. The cubes were vortexed at maximum speed for one minute. The cell suspension was then passed first through 75 mm Nitex then through 10 mm Nitex. The resulting cell suspension was diluted in complete medium to a final concentration of one brain per 10 ml of complete medium. Ten milliliters of the diluted cell suspension was added to each 100 mm Falcon tissue culture plate (Fisher). After 3 days the medium was replaced with 10 ml fresh complete medium and subsequently was replaced twice weekly with DMEM containing 10% heat inactivated horse serum (“growth medium”). After two weeks in culture the astrocytes formed a confluent monolayer.
(§4) For RNA extraction, astrocytes were trypsinized. The astrocytes were then replated onto 100 mm PORN coated plates at a cell density of 10^6 cells per plate (10 ml growth medium). […]
(§5) The blots were probed with ^32P-labeled cDNA (NGF, NT-3 and BDNF probes) or oligonucleotide probe (FGF-2) by hybridization in Piperazine-N,N′-bis-(2-ethanesulfonic acid) (PIPES) buffer (50 mM PIPES, pH 6.8; 50 mM NaH2PO4; 0.1 M NaCl; 5% SDS and 1 mM EDTA) overnight at 50° C. […] Various concentrations ([…] of total RNA), as determined by spectrophotometry, of each sample were blotted and probed so that quantification could be done after insuring a linear film response. Quantification was performed using MCID Image Analysis (St. Catherine's, Ontario, Canada). […]

FGF-2 mRNA = experiment: Northern/slot blot of neurotrophin mRNA from astrocytes: FGF-2; assay type: cell-based, NIH Swiss mice; design: key to FGF-2 mRNA: The conditions which produced a detectable amount of each of the neurotrophin mRNAs are indicated by a “+”; a “++” indicating that at least twice the detectable amount was present; Those blots which were negative are indicated by a “−”; settings: NGF 40 ng/ml, 24 hours
Experimental: as §1, §2, §3
(§6) For RNA extraction, astrocytes were trypsinized. The astrocytes were then replated onto 100 mm PORN coated plates at a cell density of 10^6 cells per plate (10 ml growth medium). After 2 hrs PBS, guanosine (Guo), or GTP at 10 mM were added to the appropriate plates. Total RNA was harvested from 1.5×10^7 cells for each treatment, 4 and 24 hrs after treatment using TRIzol reagent and supplier protocol (GIBCO BRL/Life Technologies, Inc.). For slot blots, total RNA was bound to Hybond-N filters (Amersham/United States Biochemicals) as described in Transfer and Immobilization of Nucleic Acids and Proteins to S & S Solid Supports (S and S Protocols: Schleicher & Schuell, New Hampshire, USA). Northern blots were also performed using […] total RNA from each sample. These were electrophoresed in 1% agarose gels containing formaldehyde and blotted onto Hybond-N filters according to S and S protocols.
as §5

PC12 cells = experiment: Neuritogenesis in PC12 cells; assay type: cell-based, rat; settings: NGF 40 ng/ml
In short: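 Rat pheochromocytoma PC12 cells on poly-ornithine were treated with AIT-082 alongside saturating NGF (40 ng/ml) from plating for 48 h, then formalin-fixed. Neurites ≥1 cell-body diameter with growth cone were counted; the neurite-bearing fraction is expressed relative to NGF alone (100%), mean ±SEM of 6 cultures.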

NT-3 mRNA = experiment: Northern blot of neurotrophin mRNA from astrocytes: NT-3; assay type: cell-based, NIH Swiss mice; design: key: The conditions which produced a detectable amount of each of the neurotrophin mRNAs are indicated by a “+”; a “++” indicating that at least twice the detectable amount was present; Those blots which were negative are indicated by a “−”; settings: NGF 40 ng/ml, 24 hours
Experimental: as §1, §2, §3, §4, §5

NGF mRNA = experiment: Northern/slot blot of neurotrophin mRNA from astrocytes: NGF; assay type: cell-based, NIH Swiss mice; design: key to NGF mRNA: The conditions which produced a detectable amount of each of the neurotrophin mRNAs are indicated by a “+”; a “++” indicating that at least twice the detectable amount was present; Those blots which were negative are indicated by a “−”; settings: NGF 40 ng/ml, 24 hours
Experimental: as §1, §2, §3, §6, §5

NGF: nerve growth factor
rescue of ChAT-positive cells following the FFT lesion [1]: robust rescue effect | BDNF mRNA (BDNF mRNA): + | FGF-2 mRNA (FGF-2 mRNA): − | Proportion of cells bearing neurites, NGF alone (PC12 cells; Methemoglobin 1 μM): 0.2 ± 0.02 | Proportion of cells bearing neurites, NGF alone (PC12 cells; Methylene Blue 5 μM): 0.24 ± 0.03 | Proportion of cells bearing neurites, NGF alone (PC12 cells; Zn Protoporphyrin IX 1 μM): 0.22 ± 0.03 | Proportion of cells bearing neurites, NGF alone (PC12 cells; no inhibitor, 48 hours): 0.2 ± 0.02 | NT-3 mRNA (NT-3 mRNA): − | NGF mRNA (NGF mRNA): −
